Reference: US11541050B2, “Pyrimidine derivatives for the treatment of viral infections” (JANSSEN SCIENCES IRELAND UC, priority 2011, dated 2023)

What was measured:
Format in all cases: cell-based
Set-up in all cases: unit not given here
[1] = system: human TLR8 mutant sequence comprising a deletion in the second leucine-rich repeat; test: TLR8 cellular NFκB-luc reporter assay, mutant TLR8 with deletion in the second leucine-rich repeat; conditions: lowest effective concentration, TLR8 mutant with deletion in second leucine-rich repeat
How it was run: (§1)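 HEK293 cells transiently co-transfected with CMV-driven mutant TLR7 or TLR8 plasmid plus NFκB-luc reporter, cultured 48 h at 37 °C, then exposed to compound for 6 h at 37 °C, 5% CO2. Luciferase luminescence measured; dose-response curves from quadruplicates.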

[2] = biological target: T1, human TLR7 (wild type sequence) (Homo sapiens, UniProt Q9NYK1); test: TLR7 cellular NFκB-luc reporter assay, wild type TLR7; conditions: lowest effective concentration, wild type TLR7 (compounds 1-73)
T1 construct: expressed in transfected cells; host or cells: HEK293
T1 sequence (Q9NYK1 27-1049): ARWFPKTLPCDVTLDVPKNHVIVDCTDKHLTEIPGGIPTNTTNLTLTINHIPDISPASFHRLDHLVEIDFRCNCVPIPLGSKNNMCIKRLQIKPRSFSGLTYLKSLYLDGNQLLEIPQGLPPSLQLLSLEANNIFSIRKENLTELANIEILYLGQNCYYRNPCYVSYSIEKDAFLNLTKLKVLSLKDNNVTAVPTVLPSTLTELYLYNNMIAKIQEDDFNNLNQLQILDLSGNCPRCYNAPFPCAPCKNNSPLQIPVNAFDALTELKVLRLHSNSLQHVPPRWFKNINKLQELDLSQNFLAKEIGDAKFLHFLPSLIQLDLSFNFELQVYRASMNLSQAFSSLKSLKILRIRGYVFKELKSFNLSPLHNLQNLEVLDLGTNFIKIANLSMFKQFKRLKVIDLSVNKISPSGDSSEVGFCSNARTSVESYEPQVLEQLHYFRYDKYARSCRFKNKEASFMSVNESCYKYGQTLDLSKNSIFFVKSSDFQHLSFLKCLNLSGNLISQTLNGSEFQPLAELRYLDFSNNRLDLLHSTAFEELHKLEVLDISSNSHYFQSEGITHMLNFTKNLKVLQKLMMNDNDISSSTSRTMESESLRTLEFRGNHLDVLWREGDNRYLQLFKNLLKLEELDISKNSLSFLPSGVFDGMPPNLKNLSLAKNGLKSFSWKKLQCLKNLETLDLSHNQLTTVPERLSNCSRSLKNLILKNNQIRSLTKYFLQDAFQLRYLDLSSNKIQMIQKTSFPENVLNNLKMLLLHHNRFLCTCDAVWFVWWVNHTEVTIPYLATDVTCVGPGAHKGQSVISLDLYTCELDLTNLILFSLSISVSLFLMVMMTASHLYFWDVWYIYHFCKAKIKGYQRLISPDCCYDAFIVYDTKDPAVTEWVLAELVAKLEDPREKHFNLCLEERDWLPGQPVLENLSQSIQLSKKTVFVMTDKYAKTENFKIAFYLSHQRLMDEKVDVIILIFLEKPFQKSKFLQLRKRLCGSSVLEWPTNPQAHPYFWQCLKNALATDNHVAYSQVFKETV
How it was run: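 Transfected HEK293 cells expressing wild type or second leucine-rich repeat-deleted TLR7 or TLR8 together with an NFκB-luciferase reporter are treated with compound for 6 hours. Activation is measured by luciferase, and LEC is the lowest concentration exceeding the assay standard deviation at least two fold.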

[3] = system: human TLR7 mutant sequence comprising a deletion in the second leucine-rich repeat; test: TLR7 cellular NFκB-luc reporter assay, mutant TLR7 with deletion in the second leucine-rich repeat; conditions: lowest effective concentration, TLR7 mutant with deletion in second leucine-rich repeat
How it was run: as §1

SMILES | TLR8-dIRR2_LEC [1] | TLR7-wt_LEC [2] | TLR7-dIRR2_LEC [3]
CCCCNc1nc(N)ncc1Oc1ccccc1OC [Compound 64] | 7.65 | 8.47 | 2.03
CCCCCNc1nc(N)ncc1Oc1ccccc1OC [Compound 38] | 22.88 | 21.97 | 2.46
CCCCCNc1nc(N)ncc1OC [Compound 56] | 1.47 | 12.02 | 0.84
CCCCNc1nc(N)ncc1OCc1ccc(-c2ccccc2)cc1 [Compound 58] | 2.17 | 6.48 | 0.99
CCCCCOc1cnc(N)nc1NCCCC [Compound 32] | 4.43 | 10.60 | 1.35
CCCCCCNc1nc(N)ncc1OCC [Compound 70] | >24.59 | 15.84 | 4.96
CCCCNc1nc(N)ncc1OCC(C)C [Compound 31] | 6.46 | >24.59 | 5.27
CCCCCNc1nc(N)ncc1OCC [Compound 63] | 1.94 | 2.78 | 1.79
CCCCNc1nc(N)ncc1OC [Compound 4] | 1.10 | 6.71 | 1.17
CCCCNc1nc(N)ncc1OCC [Compound 60] | 0.65 | 5.58 | 1.38
